Measured values: PubChem BioAssay (NCI)
Where “and” joins values, the source holds several entries; their conditions need not be identical. Equal values may be shown once.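 Cultured in 96-well plates, cells were exposed to test compound for 48 hours across five concentrations. Abbreviation: GI50, concentration required for 50% inhibition of growth. Definition used: TGI = concentration required for complete inhibition of growth.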 *1 amine or outer side, *2 acyl side, *3 side chain or, on linkers, in order; H or OH if unused. Where a SMILES comes first, the peptide text is derived from it. CO = O=C([*:1])[*:2]

Experiments:
Experiment in all cases: NCI anticancer screen, dose series, 48 h
ACHN renal = test system: ACHN renal
LOX IMVI melanoma = test system: LOX IMVI melanoma
MCF7 breast = test system: MCF7 breast
NCI-H460 lung = test system: NCI-H460 lung
NCI/ADR-RES ovarian = test system: NCI/ADR-RES ovarian
OVCAR-5 ovarian = test system: OVCAR-5 ovarian
RPMI-8226 leukemia = test system: RPMI-8226 leukemia
SW-620 colon = test system: SW-620 colon
T-47D breast = test system: T-47D breast
U251 CNS = test system: U251 CNS

SMILES | GI50 (ACHN renal) | TGI (ACHN renal) | GI50 (LOX IMVI melanoma) [nM] | TGI (LOX IMVI melanoma) [µM] | GI50 (MCF7 breast) [nM] | TGI (MCF7 breast) [µM] | GI50 (NCI-H460 lung) [µM] | TGI (NCI-H460 lung) [µM] | GI50 (NCI/ADR-RES ovarian) [nM] | TGI (NCI/ADR-RES ovarian) [µM] | GI50 (OVCAR-5 ovarian) | TGI (OVCAR-5 ovarian) | GI50 (RPMI-8226 leukemia) [nM] | TGI (RPMI-8226 leukemia) [µM] | GI50 (SW-620 colon) [nM] | TGI (SW-620 colon) [µM] | GI50 (T-47D breast) | TGI (T-47D breast) | GI50 (U251 CNS) [µM] | TGI (U251 CNS) [µM]
CCC(=O)Nc1ccc2c(c1)CN1C(=O)c3ccccc3C1=N2 | > 100000 nM | > 100 µM | > 100000 | > 100 | > 100000 | > 100 | > 100 | > 100 | > 100000 | > 100 | > 100000 nM | > 100 µM | > 100000 | > 100 | > 100000 | > 100 | > 100000 nM | > 100 µM | > 100 | > 100
N#Cc1c(N)nc(N2CCOCC2)c(C#N)c1-c1cccc(O)c1 |  |  | > 100000 | > 100 | 47000 | > 100 | 93.2 | > 100 | > 100000 | > 100 | > 100000 nM | > 100 µM | 48700 | > 100 | > 100000 | > 100 | 42700 nM | > 100 µM | > 100 | > 100
O=C1CN2CCC1C/C2=C\c1ccnc2c(Cl)cccc12 (centres undefined) | 85300 nM | > 100 µM | 52200 | > 100 | 4160 | > 100 | 72.8 | > 100 | 39200 | > 100 | > 100000 nM | > 100 µM | 29500 | > 100 | > 100000 | > 100 | 18800 nM | > 100 µM | 64.4 | > 100
CCCCCCCCO/N=C\c1c2c(O)c3c(O)c(C)c4c(c3c1O)C(=O)C(C)(O/C=C\C(OC)C(C)C(OC(C)=O)C(C)C(O)C(C)C(O)C(C)/C=C\C=C(\C)C(=O)N2)O4 (centres undefined) | 1780 nM | 6.58 µM | 1530 | 5.6 | 1360 | 5.12 | 0.998 | 2.14 | 1930 | 6.99 | 2120 nM | 8.08 µM | 2210 | 8.43 | 1770 | 6.09 | 2060 nM | 7.45 µM | 1.14 | 3.03
COc1ccc(/C(Cl)=C(\C=O)c2cc(OC)c(OC)c(OC)c2)cc1OC |  | > 100 µM |  | > 100 |  |  |  | > 100 |  | 40.2 |  | > 100 µM |  | 77 |  | > 100 |  | > 100 µM |  | > 61.2
Cc1cc(Nc2ncc(Cl)c(Nc3ccccc3S(=O)(=O)C(C)C)n2)c(OC(C)C)cc1C1CCNCC1 | 1590 nM and 1330 nM | 2.94 µM and 2.61 µM | 1360 | 2.71 | 552 | 2.04 | 1.2 | 2.83 | 1520 | 3.4 | 1140 nM and 714 nM and 644 nM | 2.38 µM and 2.13 µM and 2.15 µM | 753 | 2.85 | 776 | 2.61 | 1470 nM and 1570 nM | 3.27 µM and 3.17 µM | 1.39 | 2.72
O=C1NC(=O)[C@H]2C3C=CC([C@@H]12)[C@@H]1C(=O)NC(=O)[C@H]31 |  | > 100 µM |  | > 100 |  | > 100 |  | > 100 |  | > 100 |  | > 100 µM |  | > 100 |  | > 100 |  | > 100 µM |  | > 100
N#C/C(=C\c1ccc(Cl)cc1)n1nnc2cc(F)c(F)cc21 | 1640 nM | 3.02 µM | 1570 | 2.99 | 1530 | 4.49 | 2.17 | 4.86 | 2360 | 7.7 | 1900 nM | 3.81 µM | 1390 | 5.29 | 1720 | 3.46 | 1310 nM | 4.72 µM | 1.62 | 3.06
CN1CCN(Cc2ccc(NC(=O)c3[nH]ncc3Nc3ccnc4ccsc34)cc2)CC1 | 2660 nM | 9.9 µM | 1330 | 4.59 | 489 | 11.7 | 3.15 | 12 | 15700 | > 100 | 4080 nM | 14.7 µM | 2950 | 7.18 | 2600 | 12 | 4950 nM | 50.6 µM | 2.4 | 13.6
C=C1C(=O)O[C@H]2[C@H]1CC/C(COC(=O)NCCc1c[nH]c3ccccc13)=C\CC[C@@]1(C)O[C@@H]21 | 1370 nM | 2.71 µM | 788 | 2.23 | 585 | 2.26 | 3.82 | 16.3 | 2500 | 11.8 | 2300 nM | 5.75 µM | 826 | 4.26 | 1200 | 2.81 | 1700 nM | 4.41 µM | 4.88 | 17.1
CCN(CC)CCCN1C(=O)c2c(c(C)c3c(oc4cc(O)ccc43)c2C)C1=O | 1680 nM | 3.05 µM | 1790 | 3.3 |  |  | 1.82 | 3.35 |  |  | 1720 nM | 3.22 µM | 1930 | 4.17 | 1730 | 3.25 | 1850 nM | 3.8 µM | 1.74 | 3.2
CC1(C)CC2=NOS3=C2C(=NO3)C1c1ccccn1 (centres undefined) |  | > 100 µM |  | > 100 |  | > 100 |  | > 100 |  | > 100 |  | > 100 µM |  | > 100 |  | > 100 |  | > 100 µM |  | > 100
Cn1c(Cc2ccccc2)nc2cc3ccccc3cc21 | 31700 nM | > 100 µM | 24000 | 64.7 | 38000 | > 100 | 27.6 | > 100 | 24800 | 68.7 | 42500 nM | > 100 µM | 13100 | 34.3 | 17200 | 38.3 | 44900 nM | > 100 µM | 28.2 | > 100
CCN(CC)CCCC(C)N/C(c1cccc(OC)c1)=c1\c(=O)[nH]n(-c2c3ccccc3nc3ccccc23)c(=O)\c1=C(/NC(C)CCCN(CC)CC)c1cccc(OC)c1 (centres undefined) | 508 nM | 2.35 µM |  |  | 507 | 3.41 | 0.428 | 2.56 | 1790 | 8.91 | 1790 nM | 5.21 µM | 2080 | 5.06 | 528 | 6.82 | 2160 nM | 5.97 µM |  | 
COc1ccc(C(=O)c2ccc(OC)cc2OC)cc1 | 6260 nM | > 100 µM | 4470 | > 100 | 2750 | > 100 | 3.74 | 89.5 | 1590 | 5.98 | 8790 nM | > 100 µM | 3180 | 18.7 | 2960 | > 100 | 3090 nM | > 100 µM | 4.27 | > 100
C[C@@H](Oc1cc(-c2cnn(C3CC4(CCNCC4)C3)c2)cnc1N)c1c(F)ccc(Cl)c1Cl | 2000 nM | 7.54 µM | 1220 | 2.56 | 383 | 1.88 | 0.855 | 2.84 | 6610 | 21.2 | 1390 nM | 6.65 µM | 1630 | 4.95 | 537 | 2.33 | 1580 nM | 3.24 µM | 1.6 | 3.92
COc1cc(C(=O)O)ccc1NC(=O)[C@@H]1N[C@@H](CC(C)(C)C)[C@](C#N)(c2ccc(Cl)cc2F)[C@H]1c1cccc(Cl)c1F | 49.6 nM | 6.82 µM | 148 | 6.84 | 32.8 | 4.12 | 0.077 | 2.27 | 6830 | 25.2 | 7230 nM | 24.9 µM | 2510 | > 22.9 | 3020 | > 26.3 | 5230 nM | 43.7 µM | 3.16 | 11
C[C@]12CC[C@@H]3c4ccc(OCC(=O)O)cc4CC[C@H]3[C@@H]1CCC2=O |  | > 100 µM |  | > 100 |  | > 100 |  | > 100 |  | > 100 |  | > 100 µM |  | > 100 |  | > 100 |  | > 100 µM |  | > 100
COc1cc(-c2ccc(-[n+]3nc(-c4ccc([N+](=O)[O-])cc4)nn3-c3ccc([N+](=O)[O-])cc3)c(OC)c2)ccc1-[n+]1nc(-c2ccc([N+](=O)[O-])cc2)nn1-c1ccc([N+](=O)[O-])cc1 | 4160 nM | 19.2 µM | 347 | 10.1 | 1750 | 4.47 | 3.02 | 11.1 | 26900 | > 100 | 12400 nM | 45.5 µM | 10100 | 67.8 | 2990 | 25.1 | 300 nM | 5.75 µM | 10.8 | 38.7
C=C1C(=O)O[C@H]2[C@H]1CC/C(Cn1cc(Cn3ccc4cc(Cl)ccc43)nn1)=C\CC[C@@]1(C)O[C@@H]21 | 1240 nM | 2.5 µM | 1310 | 2.88 | 1250 | 3.02 | 3.27 | 10.3 | 2540 | 9.09 | 1650 nM | 3.54 µM | 796 | 3.03 | 1130 | 2.78 | 1720 nM | 4.32 µM | 1.69 | 3.35
O=c1[nH]cnc2c1nnn2[C@@H]1O[C@H](CO)[C@@H](O)[C@H]1O | 2870 nM | > 100 µM | 2140 | > 100 | 3290 | > 100 | 2.51 | > 100 | 2270 | > 100 | 19300 nM | > 100 µM | 2680 | 25 | 3010 | > 100 | 4530 nM | > 100 µM | 25.8 | > 100
COc1ccc2c(c1)/C(=C/c1c(-c3ccc(C)cc3)nc3sc(C)cn13)C(=O)N2 |  |  |  |  | 12100 | > 100 | 6.36 | 56.2 |  |  | 16600 nM | 87.3 µM |  |  | 16800 | > 100 | 5500 nM | > 100 µM |  | 
CCCN1C(=O)/C(=C/c2ccc(O)cc2)SC1=Nc1ccccc1 | 18200 nM | 34.9 µM | 14700 | 29.3 |  |  | 15.2 | 29.9 | 20400 | 36.4 | 21700 nM | 44.2 µM |  |  | 37800 | > 100 | 22500 nM | 50.8 µM | 15.6 | 29
N#C/C(=C\c1ccc(Br)cc1)n1nnc2cc(F)c(F)cc21 | 1900 nM | 3.63 µM | 1550 | 2.98 |  |  | 1.96 | 3.98 | 2300 | > 100 | 1850 nM | 3.57 µM | 2010 | 4.76 | 1550 | 3.32 | 1270 nM | 4.08 µM | 1.6 | 3.06
CC(C)C(NC(=O)C(CCCN=C(N)N)NC(=O)NC(Cc1ccccc1)C(=O)O)C(=O)NC(C=O)CCCN=C(N)N (stereo not drawn) ({Phe-CO}-Arg-Val-Arg-aldehyde; configuration not given here) | > 5000 nM | > 5 µM | > 5000 | > 5 | > 5000 | > 5 | > 5 | > 5 | > 5000 | > 5 | > 5000 nM | > 5 µM |  |  | > 5000 | > 5 | > 5000 nM | > 5 µM | > 5 | > 5
CCC[C@H](Nc1nc(-c2ccc(NC(=O)NCC)c(OC)c2)ncc1C)c1cccnc1 | 72.1 nM | 35.2 µM | 41.5 | 13.8 | 36.5 | 29.6 | 0.0357 | 13.3 | 214 | 9.97 | 57.9 nM | > 100 µM | 37 | 15.1 | 42.5 | > 88.4 |  |  | 0.0395 | 17.7
